Here are results for two compounds from patent publication US5077301A, “4-(hydroxydiphenylmethyl)-1-piperidylphenylalkane derivatives as antihistamines and methods of treatment of an allergic response” (Schaper & Bruemmer GmbH & Co. KG, priority 1989, dated 1991).

Assay [1] has as its system isolated ileum of guinea pigs. As to the kind of experiment: Spasmolysis of histamine-induced contraction on isolated guinea pig ileum, organ bath. It counts as cell-based. Particulars: Cavia porcellus; histamine dihydrochloride as spasmogen, 0.2-2 μg/ml; at least six individual tests; read-out: ED50 on guinea pig ileum. The protocol: (§1) Experiments were carried out on the isolated ileum and on the isolated trachea of guinea pigs in a typical manner in vitro in a suitable organ bath. Histamine dihydrochloride was used as a spasmogen in a final concentration of 0.2-2 μg/ml, depending on the organ preparation. The activity of the compounds was determined from the reactive spasmolysis, i.e., the relative decrease in the force of contractions compared with zero dose. The concentration-action relation was calculated from the non-linear regression between dose and action from at least six individual tests.

In assay [2] the test system is isolated trachea of guinea pigs. In words: Spasmolysis of histamine-induced contraction on isolated guinea pig trachea, organ bath. It counts as cell-based. Particulars: Cavia porcellus; histamine dihydrochloride as spasmogen, 0.2-2 μg/ml; at least six individual tests; read-out: ED50 on the isolated tracheal preparation. The protocol: as §1
Assay [3] deals with histamine-induced skin weal in the mouse. In words: Duration of inhibition of histamine-induced skin weal in the mouse after a single oral dose. It counts as in vivo. Particulars: oral administration of a comparable dose (to 6 mg/kg). On the procedure: The experiments were carried out on male NMRI mice with a body weight of 25-30 g. […] The dyestuff concentration determined by photometry in a defined area of skin can be designated a measure of the antihistamine activity.

≈ marks a conversion by molar mass, not a printed value.

For `COc1cccc(CN2CCC(C(O)(c3ccccc3)c3ccccc3)CC2)c1` [[4-(Hydroxydiphenylmethyl)-1-piperidyl]-(3-methoxyphenyl)methane], the IC50 in assay [1] is 0.029 µg/mL (≈ 0.0748 µM); in assay [2] it was 3.5 µg/mL (≈ 9.03 µM).

For `CC(C)(C)c1ccc(C(O)CCCN2CCC(C(O)(c3ccccc3)c3ccccc3)CC2)cc1` (stereo not drawn) [terfenadine, α-[4-(1,1-Dimethylethyl)phenyl]-4-(hydroxydiphenylmethyl)-1-piperidinobutanol], the IC50 in assay [1] was 0.062 µg/mL (≈ 0.131 µM); in assay [2] it was 4.1 µg/mL (≈ 8.69 µM). Also, the “antihistamine action after 4 hours” value in assay [3] was “no longer possible to measure reliably an antihistamine action”.
